Test results: patent publication US20210261621A1, “Preparation of Dilipid Polymixins and Use Thereof as Antimicrobial Adjuvants” (priority 2018, published 2021)
≈ marks a conversion by molar mass, not a printed value. Read-outs that look alike come from different tables or passages of the source. Positions of bridges follow the written chain, without caps; N, C: chain ends. Non-standard residues stand in square brackets, D forms with d. Residues, ends and D or L forms follow the SMILES beside them. *: point of attachment. Lauroyl = CCCCCCCCCCCC(=O)*; Octanoyl = CCCCCCCC(=O)*; Dab = NCC[C@H](N)C(=O)O

Experiments:
P. aeruginosa PAO200 = settings: for MIC: P. aeruginosa PAO200, efflux-deficient strain that lacks the MexAB-OprM pump
Text: (§1) To our curiosity, we explored whether efflux can affect the activity of polymyxins. It is widely accepted that polymyxins disrupt Gram-negative bacterial membranes that result to intracellular component leakage and bacterial cell death. However, for this to occur requires the agent to reach the periplasmic space to interact and disrupt the inner membrane. Active efflux may potentially expel polymyxins out of the periplasm, effectively reducing its periplasmic and intracellular concentrations. To study the effect of efflux on polymyxins in Gram-negative pathogens, we used P. aeruginosa as they inherently overexpress efflux systems such as MexAB-OprM, MexCD-OprJ and MexXY-OprM. Moreover, antibiotic substrates for these efflux systems are mostly characterized. We evaluated and compared the activity of the dilipid polymyxins, colistin and PMBN against wild-type PAO1 and two efflux-deficient P. aeruginosa isogenic mutants (Table 5). The strain PAO200 lacks the MexAB-OprM efflux system while strain PAO750 lacks five clinically-relevant pumps (MexAB-OprM, MexCD-OprJ, MexEF-OprN, MexJK and MexXY) and outer membrane protein OpmH.
(§2) Bacterial strains were either obtained from the American Type Culture Collection (ATCC), Canadian National Intensive Care Unit (CAN-ICU) surveillance study or the Canadian Ward Surveillance (CANWARD) study. Strains from both CAN-ICU and CANWARD are isolates recovered from patients diagnosed with a presumed infectious disease that were admitted in a participating medical center across Canada. Efflux-deficient strain PAO200 (lacking MexAB-OprM efflux system) and PA0750 (lacking MexAB-OprM, MexCD-OprJ, MexEF-OprN, MexJK and MexXY efflux systems, and the outer membrane protein OpmH) were kindly gifted by Dr. Ayush Kumar (University of Manitoba).
(§3) The in vitro antibacterial activity of the compounds studied were assessed by broth microdilution susceptibility testing following CLSI guidelines. Bacterial cultures were grown overnight prior to the assay. The overnight grown cultures were diluted in saline to 0.5 McFarland turbidity, followed by 1:50 dilution in Mueller-Hinton broth (MHB) for inoculation to a final concentration of approximately 5×10^5 colony forming units/mL. Testing was performed on 96-well plates where the tested compounds were 2-fold serially diluted in MHB and incubated with equal volumes of bacterial inoculum at 37° C. for 18 h. […] Wells containing MHB with or without bacterial cells were used as positive or negative control, respectively.

P. aeruginosa PAO750 = settings: P. aeruginosa PAO750, efflux-deficient strain that lacks five pumps and OpmH
Text: as §1, §2, §3

E. coli 94474 = format: cell-based, Escherichia coli; settings: 94474
Experimental: (§4) We then addressed the possibility for the dilipid polymyxins to display enhanced antibacterial activity against colistin-resistant Gram-negative pathogens. […] The extended hydrophobic region of the dilipid polymyxin may provide additional hydrophobic interactions to the outer membrane of colistin-resistant organisms. Eight MDR colistin-resistant Gram-negative bacterial isolates were tested, including two E. coli isolates harboring the mcr-1 plasmid-encoded polymyxin resistance gene. We found no difference between the antibacterial activity of dilipid polymyxins and colistin against colistin-resistant Gram-negative bacteria (Table 3).
as §2, §3

E. coli 94393 = format: cell-based, Escherichia coli; settings: 94393
Experimental: as §4, §2, §3

K. pneumoniae 113250 = format: cell-based, Klebsiella pneumoniae; settings: 113250
Experimental: as §4, §2, §3

K. pneumoniae 113254 = format: cell-based, Klebsiella pneumoniae; settings: 113254
Experimental: as §4, §2, §3

P. aeruginosa 114228 = format: cell-based, Pseudomonas aeruginosa; settings: 114228
Experimental: as §4, §2, §3

P. aeruginosa 101243 = format: cell-based, Pseudomonas aeruginosa; settings: 101243
Experimental: as §4, §2, §3

P. aeruginosa 91433 = format: cell-based, Pseudomonas aeruginosa; settings: 91433
Experimental: as §4, §2, §3

A. baumannii AB031 = format: cell-based, Acinetobacter baumannii; settings: AB031
Text: as §2, §3

[1] = tested on: A. baumannii CAN-ICU 63169; format: cell-based, Acinetobacter baumannii; settings: CAN-ICU 63169
Text: as §2, §3

A. baumannii AB027 = format: cell-based, Acinetobacter baumannii; settings: AB027
Text: as §2, §3

A. baumannii LAC-4 = format: cell-based, Acinetobacter baumannii
Text: as §2, §3

A. baumannii ATCC 17978 = format: cell-based, Acinetobacter baumannii
Text: as §2, §3

A. baumannii 110193 = format: cell-based, Acinetobacter baumannii
Text: as §2, §3

MSSE CANWARD-2008 81388 = format: cell-based, Staphylococcus epidermidis; settings: for MIC: MSSE CANWARD-2008 81388 (methicillin-susceptible Staphylococcus epidermidis)
Text: as §2, §3

E. cloacae 117029 = format: cell-based, Enterobacter cloacae; settings: 117029
Text: as §2, §3

E. coli ATCC 25922 = format: cell-based, Escherichia coli; settings: ATCC 25922
Text: as §2, §3

E. coli 107115 = format: cell-based, Escherichia coli; settings: 107115
Text: as §2, §3

E. coli CAN-ICU 63074 = format: cell-based, Escherichia coli; settings: CAN-ICU 63074
Text: as §2, §3

E. coli CAN-ICU 61714 = format: cell-based, Escherichia coli; settings: CAN-ICU 61714
Text: as §2, §3

A. baumannii 92247 = format: cell-based, Acinetobacter baumannii; settings: 92247
Experimental: as §4, §2, §3

MRSE CAN-ICU 61589 = format: cell-based, S. epidermidis; settings: CAN-ICU 61589
Text: as §2, §3

[2] = tested on: S. maltophilia CAN-ICU 62584; format: cell-based, Stenotrophomonas maltophilia; settings: CAN-ICU 62584
Text: as §2, §3

Row | SMILES | MIC (P. aeruginosa PAO200) [µg/mL] | MIC (P. aeruginosa PAO750) [µg/mL] | MIC (E. coli 94474) [µg/mL] | MIC (E. coli 94393) [µg/mL] | MIC (K. pneumoniae 113250) [µg/mL] | MIC (K. pneumoniae 113254) [µg/mL] | MIC (P. aeruginosa 114228) [µg/mL] | MIC (P. aeruginosa 101243) [µg/mL] | MIC (P. aeruginosa 91433) [µg/mL] | MIC (A. baumannii AB031) [µg/mL] | MIC [1] [µg/mL] | MIC (A. baumannii AB027) [µg/mL] | MIC (MSSE CANWARD-2008 81388) [µg/mL] | MIC (E. cloacae 117029) [µg/mL] | MIC (E. coli ATCC 25922) [µg/mL] | MIC (E. coli 107115) [µg/mL] | MIC (E. coli CAN-ICU 63074) [µg/mL] | MIC (E. coli CAN-ICU 61714) [µg/mL] | MIC (A. baumannii 92247) [µg/mL] | MIC (MRSE CAN-ICU 61589) [µg/mL] | other results
1 | CCCCCCCCCCCC(=O)NCC[C@H](NC(=O)CCCCCCCCCCC)C(=O)N[C@H](C(=O)N[C@@H](CCN)C(=O)N[C@H]1CCNC(=O)[C@H]([C@@H](C)O)NC(=O)[C@H](CCN)NC(=O)[C@H](CCN)NC(=O)[C@H](CC(C)C)NC(=O)[C@@H](Cc2ccccc2)NC(=O)[C@H](CCN)NC1=O)[C@@H](C)O [Compound 3, Didodecanoic Acid (Di-C12) Polymyxin] (Lauroyl-[Dab](Lauroyl)T[Dab][Dab][Dab][dF]L[Dab][Dab]T; lactam 4-C) | 32 (≈ 22.4 µM) | 32 (≈ 22.4 µM) | >64 | 32 (≈ 22.4 µM) | >64 | >64 | >128 | 16 (≈ 11.2 µM) | 8 (≈ 5.6 µM) | 64 (≈ 44.8 µM) | 128 (≈ 89.6 µM) | 128 (≈ 89.6 µM) | 64 (≈ 44.8 µM) | 16 (≈ 11.2 µM) | 16 (≈ 11.2 µM) | 8 (≈ 5.6 µM) | 64 (≈ 44.8 µM) | 128 (≈ 89.6 µM) | 32 (≈ 22.4 µM) | 64 (≈ 44.8 µM) | MIC (A. baumannii LAC-4; A. baumannii LAC-4): >128 µg/mL; MIC (A. baumannii ATCC 17978; A. baumannii ATCC 17978): >128 µg/mL; MIC (A. baumannii 110193; A. baumannii 110193): >128 µg/mL; MIC [2]: 128 µg/mL (≈ 89.6 µM)
2 | CCCCCCCC(=O)NCC[C@H](NC(=O)CCCCCCC)C(=O)N[C@H](C(=O)N[C@@H](CCN)C(=O)N[C@H]1CCNC(=O)[C@H]([C@@H](C)O)NC(=O)[C@H](CCN)NC(=O)[C@H](CCN)NC(=O)[C@H](CC(C)C)NC(=O)[C@@H](Cc2ccccc2)NC(=O)[C@H](CCN)NC1=O)[C@@H](C)O [Compound 2, Dioctanoic Acid (Di-C8) Polymyxin] (Octanoyl-[Dab](Octanoyl)T[Dab][Dab][Dab][dF]L[Dab][Dab]T; lactam 4-C) | 2 (≈ 1.52 µM) | 2 (≈ 1.52 µM) | 4 (≈ 3.04 µM) | 4 (≈ 3.04 µM) | >64 | >64 | 4 (≈ 3.04 µM) | 32 (≈ 24.3 µM) | 4 (≈ 3.04 µM) | 8 (≈ 6.08 µM) | 64 (≈ 48.6 µM) | 32 (≈ 24.3 µM) | 8 (≈ 6.08 µM) | 2 (≈ 1.52 µM) | 4 (≈ 3.04 µM) | 2 (≈ 1.52 µM) | 64 (≈ 48.6 µM) | 32 (≈ 24.3 µM) | 8 (≈ 6.08 µM) | 16 (≈ 12.2 µM) | difference in MIC among the three P. aeruginosa strains tested (P. aeruginosa PAO200; PAO1, PAO200, PAO750): no difference; MIC (A. baumannii LAC-4; LAC-4): 16 µg/mL (≈ 12.2 µM); MIC (A. baumannii ATCC 17978; ATCC 17978): 32 µg/mL (≈ 24.3 µM); MIC (A. baumannii 110193; 110193): 16 µg/mL (≈ 12.2 µM); fold better MIC than colistin (MSSE CANWARD-2008 81388; methicillin-susceptible Staphylococcus epidermidis): 32 fold; MIC [2]: 32 µg/mL (≈ 24.3 µM)
